Results from ChEMBL document CHEMBL4665919, “Novel Tricyclic Pyroglutamide Derivatives as Potent RORγt Inverse Agonists Identified using a Virtual Screening Approach” (ACS Med Chem Lett, 2020).
pEC50, pIC50: −log10 of the molar value.

Legend:
[1] = Half life in human liver microsomes; assay type: ADME, Microsome
[2] = molecular target: T1, Nuclear receptor ROR-alpha (Homo sapiens, UniProt P35398); assay: Inverse agonist activity at Gal4-fused RORalpha (unknown origin)
T1 sequence (P35398 whole entry): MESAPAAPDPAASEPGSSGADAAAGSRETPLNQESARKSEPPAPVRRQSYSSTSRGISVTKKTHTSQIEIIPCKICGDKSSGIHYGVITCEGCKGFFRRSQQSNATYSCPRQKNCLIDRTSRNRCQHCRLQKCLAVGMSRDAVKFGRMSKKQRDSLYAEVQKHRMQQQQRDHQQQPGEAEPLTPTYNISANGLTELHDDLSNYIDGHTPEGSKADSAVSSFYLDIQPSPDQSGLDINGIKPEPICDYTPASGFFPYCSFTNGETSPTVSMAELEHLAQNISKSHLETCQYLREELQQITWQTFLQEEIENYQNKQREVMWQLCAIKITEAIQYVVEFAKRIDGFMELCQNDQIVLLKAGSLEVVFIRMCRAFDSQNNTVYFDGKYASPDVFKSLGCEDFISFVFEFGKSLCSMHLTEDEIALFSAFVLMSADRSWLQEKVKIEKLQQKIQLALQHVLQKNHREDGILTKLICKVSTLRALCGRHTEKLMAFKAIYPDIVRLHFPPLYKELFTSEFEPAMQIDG

[3] = molecular target: T2, Cytochrome P450 1A2 (Homo sapiens, UniProt P05177); assay: Inhibition of CYP1A2 (unknown origin); assay type: ADME
T2 sequence (P05177 whole entry): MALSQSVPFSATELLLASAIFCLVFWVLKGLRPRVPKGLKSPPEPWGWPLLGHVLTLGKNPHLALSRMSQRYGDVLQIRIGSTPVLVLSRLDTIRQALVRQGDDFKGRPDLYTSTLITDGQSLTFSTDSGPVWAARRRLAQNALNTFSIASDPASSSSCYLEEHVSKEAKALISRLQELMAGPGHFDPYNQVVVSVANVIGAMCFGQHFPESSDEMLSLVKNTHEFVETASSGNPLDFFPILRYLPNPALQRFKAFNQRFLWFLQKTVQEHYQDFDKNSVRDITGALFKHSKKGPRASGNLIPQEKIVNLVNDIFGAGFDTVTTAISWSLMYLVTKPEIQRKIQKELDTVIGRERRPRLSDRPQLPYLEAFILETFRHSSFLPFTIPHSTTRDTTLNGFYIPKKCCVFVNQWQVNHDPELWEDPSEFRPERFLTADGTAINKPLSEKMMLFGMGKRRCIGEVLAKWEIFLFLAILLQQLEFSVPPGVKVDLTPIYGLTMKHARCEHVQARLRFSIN

[4] = molecular target: T3, Cytochrome P450 2C8 (Homo sapiens, UniProt P10632); assay: Inhibition of CYP2C8 (unknown origin); assay type: ADME
T3 sequence (P10632 whole entry): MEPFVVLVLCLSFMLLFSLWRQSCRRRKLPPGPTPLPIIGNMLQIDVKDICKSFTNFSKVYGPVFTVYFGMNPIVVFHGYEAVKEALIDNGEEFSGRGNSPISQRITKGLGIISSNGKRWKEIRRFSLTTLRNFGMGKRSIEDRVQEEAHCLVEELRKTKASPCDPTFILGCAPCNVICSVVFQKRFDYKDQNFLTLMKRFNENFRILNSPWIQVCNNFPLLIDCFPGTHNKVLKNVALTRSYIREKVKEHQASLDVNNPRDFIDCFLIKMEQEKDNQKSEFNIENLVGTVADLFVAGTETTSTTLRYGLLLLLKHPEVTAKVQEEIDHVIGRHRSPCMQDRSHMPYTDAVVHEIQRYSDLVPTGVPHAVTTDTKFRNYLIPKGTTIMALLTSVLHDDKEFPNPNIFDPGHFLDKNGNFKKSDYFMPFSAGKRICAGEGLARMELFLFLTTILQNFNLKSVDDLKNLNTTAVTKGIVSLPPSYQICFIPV

[5] = Kinetic solubility of compound in 0.1 N HCK solvent at pH 1; assay type: physicochemical; details: 0.1 N HCl (printed 0.1 N HCK), read-out: Kinetic_solubility

half-life [1]: > 2 h
pEC50 [2]: < 5.00
pIC50 [3]: < 4.70
pIC50 [4]: < 4.70
solubility kinetic [5]: < 1 µg/mL
SMILES: CC(C)(O)CN1C(=O)[C@H](F)C[C@H]1C(=O)N1CC[C@@]2(S(=O)(=O)c3ccc(F)cc3)c3ccc(C(F)(C(F)(F)F)C(F)(F)F)cc3CC[C@@H]12
